Reference: ChEMBL document CHEMBL1914337, “Synthesis and biological evaluation of 2-indolinone derivatives as potential antitumor agents” (Eur J Med Chem, 2011)
Calls of active or inactive are those of the source. The calls are words filed in the database; no cut-off is given here.

Columns and labels:
[1] = Cytotoxicity against human QSG7701 cells after 48 hrs by MTT assay; format: cell-based; details: QSG7701, 48 h
HepG2 = experiment: cells; details: Homo sapiens, HepG2, 48 h
Description: Cytotoxicity against human HepG2 cells after 48 hrs by MTT assay

HL-60 = experiment: cells; details: Homo sapiens, HL-60, 48 h
Description: Cytotoxicity against human HL60 cells after 48 hrs by MTT assay

A549 = experiment: cells; details: Homo sapiens, A549, 48 h
Description: Cytotoxicity against human A549 cells after 48 hrs by MTT assay

K562 = experiment: cells; details: Homo sapiens, K562, 48 h
Description: Cytotoxicity against human K562 cells after 48 hrs by MTT assay

HCT-116 [2] = experiment: cells; details: Homo sapiens, HCT-116, 48 h
Description: Cytotoxicity against human HCT116 cells after 48 hrs by MTT assay

PC-3 = experiment: Cytotoxicity against human PC3 cells after 48 hrs by MTT assay; format: functional, cell-based; details: PC-3, 48 h
[3] = target: T1, Vascular endothelial growth factor receptor 2 (Homo sapiens, UniProt P35968); experiment: Inhibition of VEGF-induced VEGFR2 phosphorylation in human HCT116 cells at 0.2 to 20 uM treated 30 mins before VEGF challenge measured after 2 hrs by immuno blot analysis; format: cell-based; details: HCT-116
T1 sequence (P35968 whole entry): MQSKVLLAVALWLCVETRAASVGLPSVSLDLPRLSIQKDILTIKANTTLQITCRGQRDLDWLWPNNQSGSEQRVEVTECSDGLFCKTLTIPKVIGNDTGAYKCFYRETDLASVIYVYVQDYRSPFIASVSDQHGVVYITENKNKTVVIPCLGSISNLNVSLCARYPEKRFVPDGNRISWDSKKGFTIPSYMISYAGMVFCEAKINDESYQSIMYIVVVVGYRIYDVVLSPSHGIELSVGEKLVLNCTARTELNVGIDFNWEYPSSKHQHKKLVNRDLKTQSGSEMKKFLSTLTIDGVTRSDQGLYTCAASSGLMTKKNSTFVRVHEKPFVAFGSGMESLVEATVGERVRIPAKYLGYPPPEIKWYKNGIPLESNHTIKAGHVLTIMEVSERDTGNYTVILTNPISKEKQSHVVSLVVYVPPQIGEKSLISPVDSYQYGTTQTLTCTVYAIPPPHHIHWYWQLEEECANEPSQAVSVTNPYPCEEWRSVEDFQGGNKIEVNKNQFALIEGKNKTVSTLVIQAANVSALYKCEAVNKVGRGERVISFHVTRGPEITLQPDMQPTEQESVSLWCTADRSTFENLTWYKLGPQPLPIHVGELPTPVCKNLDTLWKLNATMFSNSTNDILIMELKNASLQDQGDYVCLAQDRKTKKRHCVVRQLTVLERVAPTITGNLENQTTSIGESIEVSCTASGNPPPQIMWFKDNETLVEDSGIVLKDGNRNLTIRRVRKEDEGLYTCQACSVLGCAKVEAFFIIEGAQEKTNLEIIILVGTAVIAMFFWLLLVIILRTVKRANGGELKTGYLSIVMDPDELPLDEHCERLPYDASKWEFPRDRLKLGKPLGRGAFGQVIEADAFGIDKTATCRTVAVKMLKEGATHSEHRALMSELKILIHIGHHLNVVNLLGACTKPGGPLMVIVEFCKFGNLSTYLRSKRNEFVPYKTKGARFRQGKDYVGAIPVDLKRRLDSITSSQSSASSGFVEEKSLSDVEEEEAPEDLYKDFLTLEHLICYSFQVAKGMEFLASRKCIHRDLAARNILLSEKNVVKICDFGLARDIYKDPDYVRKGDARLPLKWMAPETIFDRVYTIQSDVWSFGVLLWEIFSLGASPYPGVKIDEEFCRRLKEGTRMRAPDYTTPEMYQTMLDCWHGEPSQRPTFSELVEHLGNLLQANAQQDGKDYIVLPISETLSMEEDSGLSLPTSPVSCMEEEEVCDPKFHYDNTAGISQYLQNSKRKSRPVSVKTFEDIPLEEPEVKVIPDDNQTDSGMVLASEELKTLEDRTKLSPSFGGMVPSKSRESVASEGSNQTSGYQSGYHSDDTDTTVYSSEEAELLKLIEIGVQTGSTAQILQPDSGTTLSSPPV

[4] = target: T1, Vascular endothelial growth factor receptor 2; experiment: Inhibition of human VEGFR2 preincubated for 10 mins before ATP addition measured after 45 mins
HCT-116 [5] = experiment: Cell cycle arrest in human HCT116 cells assessed as accumulation at S phase at 2 uM after 48 hrs using propidium iodide by flow cytometry (reference value: 46.43%); format: functional
HCT-116 [6] = experiment: Cell cycle arrest in human HCT116 cells assessed as accumulation at G1 phase at 8 uM after 48 hrs using propidium iodide by flow cytometry (reference value: 36.8%); format: functional
HCT-116 [7] = experiment: Induction of apoptosis in human HCT116 cells at 8 uM after 48 hrs using annexin V/propidium iodide staining by flow cytometry (reference value: 4.17%); format: functional
HCT-116 [8] = experiment: Cell cycle arrest in human HCT116 cells assessed as accumulation at G1 phase after 48 hrs using propidium iodide by flow cytometry; format: functional, cell-based
HCT-116 [9] = experiment: Cell cycle arrest in human HCT116 cells assessed as accumulation at G2 phase at 2 uM after 48 hrs using propidium iodide by flow cytometry (reference value: 16.77%); format: functional
HCT-116 [10] = experiment: Cell cycle arrest in human HCT116 cells assessed as accumulation at S phase at 8 uM after 48 hrs using propidium iodide by flow cytometry (reference value: 46.43%); format: functional
HCT-116 [11] = experiment: Cell cycle arrest in human HCT116 cells assessed as accumulation at G1 phase at 2 uM after 48 hrs using propidium iodide by flow cytometry (reference value: 36.8%); format: functional
HCT-116 [12] = experiment: Induction of apoptosis in human HCT116 cells at 2 uM after 48 hrs using annexin V/propidium iodide staining by flow cytometry (reference value: 4.17%); format: functional
HCT-116 [13] = experiment: Cell cycle arrest in human HCT116 cells assessed as accumulation at G2 phase at 0.5 uM after 48 hrs using propidium iodide by flow cytometry (reference value: 16.77%); format: functional
HCT-116 [14] = experiment: Induction of apoptosis in human HCT116 cells at 0.5 uM after 48 hrs using annexin V/propidium iodide staining by flow cytometry (reference value: 4.17%); format: functional
HCT-116 [15] = experiment: Induction of apoptosis in human HCT116 cells assessed as increase in late apoptotic cells after 48 hrs using annexin V/propidium iodide staining by flow cytometry; format: functional, cell-based
HCT-116 [16] = experiment: Cell cycle arrest in human HCT116 cells assessed as accumulation at G2 phase at 8 uM after 48 hrs using propidium iodide by flow cytometry (reference value: 16.77%); format: functional
HCT-116 [17] = experiment: Cell cycle arrest in human HCT116 cells assessed as accumulation at S phase at 0.5 uM after 48 hrs using propidium iodide by flow cytometry (reference value: 46.43%); format: functional
HCT-116 [18] = experiment: Cell cycle arrest in human HCT116 cells assessed as accumulation at G1 phase at 0.5 uM after 48 hrs using propidium iodide by flow cytometry (reference value: 36.8%); format: functional

Row | Structure (SMILES) | IC50 [1] [µM] | IC50 (HepG2) [µM] | IC50 (HL-60) [µM] | IC50 (A549) [µM] | IC50 (K562) [µM] | IC50 (HCT-116 [2]) [µM] | IC50 (PC-3) [µM] | further results
1 | O=C1Nc2ccc(F)cc2/C1=C/c1ccc(C(=O)NCCN2CCCCC2)c(=O)[nH]1 | > 50 | 18.9 | 32.7 | 15.2 | 26.8 | 9.5 | 28 | –
2 | O=C1Nc2cccnc2C1=Cc1c[nH]c2ccc(F)cc12 (mixture of isomers) | > 50 | > 50 | > 50 | > 50 | > 50 | > 50 | > 50 | –
3 | Cc1[nH]c(/C=C2\C(=O)Nc3ncccc32)c(C)c1C(=O)N1CCN(CCO)CC1 | > 50 | > 50 | > 50 | > 50 | > 50 | > 50 | > 50 | –
4 | CCN(CC)CCNC(=O)c1ccc(/C=C2\C(=O)Nc3cccnc32)[nH]c1=O | > 50 | 12.6 | 32.9 | 11.8 | 25.3 | 8.2 | 30.3 | –
5 | Cc1[nH]c(/C=C2\C(=O)Nc3ccncc32)c(C)c1C(=O)N1CCN(C)CC1 | > 50 | > 50 | > 50 | > 50 | > 50 | > 50 | > 50 | –
6 | Cc1[nH]c(/C=C2\C(=O)Nc3ncccc32)c(C)c1C(=O)N1CCN(C)CC1 | > 50 | 37.3 | 40 | 48.2 | > 50 | 35 | > 50 | –
7 | CN(C)CCNC(=O)c1ccc(/C=C2\C(=O)Nc3ccc(F)cc32)[nH]c1=O | > 50 | 17.1 | 24.7 | 12.6 | 19.3 | 5.3 | 25.2 | –
8 | O=C1Nc2ccc(F)cc2/C1=C/c1ccc(C(=O)NCCN2CCOCC2)c(=O)[nH]1 | > 50 | 35 | 38.9 | 22 | 45.1 | 12.8 | 35.6 | –
9 | O=C1Nc2ccc(F)cc2/C1=C/c1c[nH]c2ccc(F)cc12 | > 50 | > 50 | > 50 | > 50 | > 50 | 42.1 | > 50 | –
10 | CCc1cccc2c(/C=C3\C(=O)Nc4ncccc43)c[nH]c12 | 42.6 | 10.5 | 37.4 | 17.1 | 27.7 | 13.6 | > 50 | –
11 | Cc1[nH]c(/C=C2\C(=O)Nc3ncccc32)c(C)c1C(=O)NCCN1CCOCC1 | > 50 | > 50 | 27.8 | 29.2 | > 50 | 25.5 | > 50 | –
12 | CCN(CC)CCNC(=O)c1c(C)[nH]c(/C=C2\C(=O)Nc3ccncc32)c1C | > 50 | 16.4 | 35 | 13.9 | 14.8 | 11 | > 50 | –
13 | CCc1cccc2c(/C=C3\C(=O)Nc4ccc(F)cc43)c[nH]c12 | > 50 | 28.1 | 26.7 | 11 | 15.8 | 8.6 | 26.4 | inhibition [3]: Active; IC50 [4]: 6.58 µM
14 | Cc1[nH]c(/C=C2\C(=O)Nc3ccncc32)c(C)c1C(=O)NCCN(C)C | > 50 | 8.6 | 34.8 | 12.5 | 15.7 | 9.1 | > 50 | inhibition [3]: Active; IC50 [4]: 0.06 µM
15 | Cc1[nH]c(/C=C2\C(=O)Nc3cccnc32)c(C)c1C(=O)NCCN(C)C | > 50 | 20.2 | 45.9 | 16.7 | 24.1 | 12.4 | 47 | –
16 | CCc1cccc2c(C=C3C(=O)Nc4cccnc43)c[nH]c12 (mixture of isomers) | 44.8 | > 50 | 34.2 | 32.5 | > 50 | 22.3 | > 50 | –
17 | Cc1[nH]c(/C=C2\C(=O)Nc3ncccc32)c(C)c1C(=O)NCCN(C)C | > 50 | 18.3 | 48.8 | 21 | 19.8 | 9.2 | 49.5 | –
18 | CCN(CC)CCNC(=O)c1ccc(/C=C2\C(=O)Nc3ccc(F)cc32)[nH]c1=O.Cl | > 50 | 5 | 22.7 | 6.2 | 13.8 | 2.3 | 21 | Activity (HCT-116 [5]): 38.76%; Activity (HCT-116 [6]): 81.63%; Activity (HCT-116 [7]): 48.67%; Activity (HCT-116 [8]): Dose-dependent effect; Activity (HCT-116 [9]): 8.61%; Activity (HCT-116 [10]): 18.27%; Activity (HCT-116 [11]): 45.4%; Activity (HCT-116 [12]): 28.63%; inhibition [3]: Active; Activity (HCT-116 [13]): 12.11%; IC50 [4]: 0.015 µM; Activity (HCT-116 [14]): 20.48%; Activity (HCT-116 [15]): Dose-dependent effect; Activity (HCT-116 [16]): 0.1%; Activity (HCT-116 [17]): 42.45%; Activity (HCT-116 [18]): 42.6%
19 | O=C1Nc2ncccc2/C1=C/c1c[nH]c2cc(F)ccc12 | > 50 | 15.4 | 34.1 | 31.1 | > 50 | 22.3 | > 50 | –
20 | CN(C)CCNC(=O)c1ccc(/C=C2\C(=O)Nc3ncccc32)[nH]c1=O | > 50 | 27.3 | 34.3 | 13.7 | 21.3 | 4.3 | 26 | –
21 | O=C1Nc2ccc(F)cc2/C1=C/c1c[nH]c2cc(F)ccc12 | > 50 | > 50 | 43.1 | > 50 | > 50 | 28 | > 50 | –
22 | Cc1[nH]c(/C=C2\C(=O)Nc3ncccc32)c(C)c1C(=O)NCCN1CCCCC1 | > 50 | 38.6 | 30.2 | 25.4 | 18 | 18.1 | 25.6 | –
23 | O=C1Nc2ncccc2/C1=C/c1c[nH]c2ccc(F)cc12 | > 50 | > 50 | 48 | > 50 | 30 | 17.8 | > 50 | –
24 | O=C1Nc2cccnc2C1=Cc1c[nH]c2cc(F)ccc12 (mixture of isomers) | > 50 | > 50 | > 50 | > 50 | > 50 | > 50 | > 50 | –
25 | CCN(CC)CCNC(=O)c1c(C)[nH]c(/C=C2\C(=O)Nc3ccc(F)cc32)c1C [SUNITINIB] | > 50 | 15.4 | 15.5 | 18.5 | 21.9 | 6.1 | 25.1 | –
26 | Cc1[nH]c(/C=C2\C(=O)Nc3ccncc32)c(C)c1C(=O)N1CCN(CCO)CC1 | > 50 | > 50 | > 50 | > 50 | > 50 | > 50 | > 50 | –
